Laboratory results: patent US6610289B2, “Mutated herpes simplex virus type 1 thymidine kinases and uses thereof” (The Board of Trustees of the University of Arkansas, priority 1998, dated 2003)

Columns and labels:
HCT-116 cells = assay: MTT cell viability, sensitivity to GCV killing, HCT-116 cell lines expressing HSV-1 TKs; type: cell-based, human; conditions: HCT-116, GCV 0-5 μM, 4 days, FIG. 3B
Protocol: Cells were plated in triplicate and exposed to 0, 0.05, 0.5 or 5 μM GCV for four days. Cell viabilities were determined using MTT dye. […] FIG. 3A: NIH3T3 cell lines, FIG. 3B: HCT-116 cell lines; parental cells (noTK, dark bands); Asp125TK (Asp-#, brick band); Glu-125TK (Glu-#, cross-hatch bands); Asn-125TK (Asn-#, gray bands); wild-type HSV-1 TK (WT-#, striped bands).
A Moloney murine leukemia virus derived plasmid for the expression of HSV-TK, termed pLENTK, has been previously constructed (24). A unique BspEI-MluI restriction fragment within the HSV-TK sequence of pLENTK contains the Gln-125 mutation site. This fragment was removed from wild-type plasmid and replaced with the analogous fragments encoding each mutant. […] Along with wild-type HSV-1 TK plasmid, each mutant-TK plasmid was transfected individually into the murine fibroblast cell line, NIH 3T3, and the human colon tumor cell line, HCT-116, using lipofectin reagent (GIBCO/BRL) (2 μg plasmid, 14 μl lipid per 1×10^6 cells). Cells were maintained in RPMI 1640 media and selected with G418 (200 μg/ml for 2 weeks) as previously described (24). At least eight individual G418 resistant cell clones were picked and grown up for further characterization. Each clone was screened initially for growth inhibition by 25 μM GCV. Those clones that were sensitive were further analyzed for HSV-TK protein expression by Western blot analysis with a polyclonal, rabbit anti-HSV-TK antibody (a gift from Dr. Margaret Black). For each clone, cell numbers were normalized to 1×10^6, and equal protein loading was confirmed for each sample by gel staining. Blotted HSV-1 TK protein bands were visualized on film using ECL chromophore reagents (Amersham). For analysis of GCV sensitivity of different clones, NIH3T3 and HCT-116 cell sets were seeded in 96 well plates in 0.1 ml media (15,000 cells/well). The next day, a dose range of GCV (0.005 to 5 mM, n=3) was added in 0.1 ml media. After 4 days, MTT ([…]) was added for 1.5 hours, followed by DMSO solubilization of the cells and absorbance reading at 540 nm (25).
cDNA for each mutant was incorporated into a Moloney murine leukemia virus plasmid (24). The plasmids for wild-type HSV-1 TK and each mutant were individually transfected into either NIH3T3 cells or the human colon tumor cell line, HCT-116. Following drug selection in G418, individual cell clones were evaluated for sensitivity to GCV and relative levels of HSV-1 TK expression. Using an HSV-1 TK antibody and extracts normalized by protein and cell number, the relative expression levels of HSV-1 TK in each cell clone were determined.

NIH3T3 cells = assay: Metabolic labeling with [^3H]GCV, NIH3T3 cell clones; type: cell-based, murine; conditions: 3T3
Protocol: For metabolic labeling, cells (1-2×10^6) were labeled in triplicate with 2 μCi [^3H]GCV ([…]) for 18 hours, then nucleotides were extracted from pelleted cells in 0.2 ml 70% methanol at 4° C. for 15 minutes as previously described (21, 24). An aliquot of each methanol soluble supernatant was analyzed for radioactivity by scintillation counting. The methanol insoluble pellets, representative of a crude DNA fraction, were resuspended in 0.15 ml water and also counted for radioactivity. For deoxpyrimidines, cells were grown to confluency in 60 cm^2 plates, and either 2 μCi [^3H]thymidine (2 μM final) or 2 μCi [^3H]dC (10 μM final) were added for 1 or 2 hours respectively prior to extraction in 70% methanol. Methanol-soluble extracts were concentrated by evaporation under nitrogen, and separated on PEI-cellulose thin layer chromatography plates developed in 0.8 M LiCl for GCV or 0.35 M LiCl for thymidine/dC as previously described (21).
NIH3T3 fibroblasts and the human tumor cell line HCT-116 were transfected with wild-type HSV-1TK or with one of three site specific mutants of amino acid Gln-125. From a panel of multiple HSV-1TK expressing clones, a subset of clones from each cell line expressing wild-type HSV-1 TK, the Asn-125 HSV-1 TK mutant (Asn-125TK) and the Glu-125 HSV-1 TK mutant (Glu-125TK) were selected for comparatively equivalent levels of HSV-1 TK protein expression based on Western blot determinations. In this study, these two sets of HSV-1 TK-expressing NIH 3T3 and HCT-116 cell lines were evaluated for intracellular metabolism of [^3H]GCV, [^3H]thymidine, or [^3H]dC. Cells were labeled with [^3H]GCV for 18 hours, then nucleotides were extracted in ice-cold 70% methanol as previously described (21, 24). The data in Table 3 summarize the amount of total nucleotide metabolites isolated in the methanol-soluble extracts (pmol/10^6 cells) as well as the total amount of methanol-insoluble metabolites representative of incorporation into DNA. The Asn-125TK metabolizes GCV at (or near) equal levels to the wild-type HSV-TK in both cell lines. The methanol-insoluble data, while only a crude indicator of [^3H]GCV incorporation into DNA, reflects the numbers obtained with the soluble extracts. As compared with the non-HSV-TK-expressing HCT-116 cells and consistent with data in the previous study (24), minimal [^3H]GCV metabolism was detected in the Asp-125TK cells and these cells were not further evaluated.
The methanol-soluble metabolites were further separated into their constituent phosphorylated GCV metabolites by thin layer chromatography (21). As presented in Table 4, the predominant metabolite in each HSV-TK-expressing cell line was GCVTP. In both HCT-116 and NIH3T3 cell lines, the Asn-125TK cells indicated slightly higher levels of GCVTP as compared to wild-type HSV-1 TK cell lines. […] This difference in the levels of GCVTP in the two Glu-125TK expressing cell lines could explain the lack of sensitivity to GCV killing observed for the NIH3T3 Glu-125TK cell lines.

Row | Substance | Dose dependent cell killing by GCV (cell viability, MTT) (HCT-116 cells) | Dose dependent cell killing by GCV (cell viability, MTT) (HCT-116 cells; listed as Asn-125TK) | Phosphorylated metabolite GCVDP (NIH3T3 cells) [pmol/10^6 cells] | Phosphorylated metabolite GCVMP (NIH3T3 cells) [pmol/10^6 cells] | Phosphorylated metabolite GCVTP (NIH3T3 cells) [pmol/10^6 cells] | Dose dependent cell killing by GCV (cell viability, MTT) (HCT-116 cells; listed as Gln-125) | Dose dependent cell killing by GCV (cell viability, MTT) (HCT-116 cells; listed as wild-type) | Dose dependent cell killing by GCV (cell viability, MTT) (HCT-116 cells; listed as Glu-125 HSV-1 TK) | Dose dependent cell killing by GCV (cell viability, MTT) (HCT-116 cells; listed as Glu-125TK)
1 | Asn-125 | as effective as wild-type HSV-1 TK | proportionally more cell killing | 21 | 11 | 272 |  |  |  | 
2 | Gln-125 (WT): wild-type herpes simplex virus type 1 thymidine kinase with glutamine at position 125, parent enzyme [reference compound] |  |  | 22 | 12 | 232 | as effective as wild-type HSV-1 TK | proportionally more cell killing |  | 
3 | Glu-125 |  |  | 0 | 0 | 1.6 |  |  | just as sensitive to GCV killing | cell viabilities dropped precipitously
